Test results published in patent US20250333708A1, “MANIPULATING NEPHRON DIFFERENTIATION RATE IN INDUCED HUMAN PLURIPOTENT STEM CELL ORGANOIDS AND TISSUES BY ENGINEERING MECHANICS OF THE MICROENVIRONMENT” (THE TRUSTEES OF THE UNIVERSITY OF PENNSYLVANIA, priority 2022, published 2025).

Key:
[1] = tested on: day 9 iPSC-derived metanephric mesenchyme; experiment: CHIR effect on day 9 iPSC-derived metanephric mesenchyme (substrate release and compaction); assay type: cell-based, human; settings: day 9 cells, CHIR pulse; ascribed to collective cell contractility rather than motility
Description: We next turned to a bottom-up approach using human iPSC-derived nephron progenitor organoids to assess the effects of mechanical microenvironment changes on nephron differentiation (FIG. 6B). When differentiated, these roughly mimic the progression in transcriptional states and marker expression profiles of mouse nephron progenitors in vivo, despite some species-specific differences (61-65). To test perturbations to cell collective tension during nephron progenitor commitment, we first differentiated PSCs through late primitive streak and posterior intermediate mesoderm (PIM) lineages to metanephric mesenchyme according to established protocols (66), confirming by qPCR (FIG. 10). We also validated that induced metanephric mesenchyme cells go on to form later nephron structures including ECAD+tubules containing GATA3+ distal nephron cells and Na^+/[…]/2Cl^− cotransporter SLC12A1+ loop of Henle cells after 21 days in culture (FIG. 6C). Day 9 induced metanephric mesenchyme cells were dissociated and plated into low-attachment round-bottom plates where they formed spheroids that we assayed for early nephrogenesis (FIG. 6D). In similar assays, a CHIR pulse is typically applied after re-aggregation of cells to mimic Wnt9b-driven β-catenin signaling during nephron progenitor commitment in vivo (61,62,67,68). […]

[2] = tested on: day 9 metanephric mesenchyme spheroids (human iPSC-derived nephron progenitors); experiment: Nephron progenitor spheroid differentiation assay (SIX2 / LHX1 immunofluorescence); assay type: cell-based; settings: 48 hr; for LHX1+ early nephron cells in spheroids (marker positive pixel area as % of projection area): single agent in FGF9 basal media, 3 μM CHIR or 10 μM Y27632; for LHX1+ early nephron cells in spheroids, agent combined with CHIR: 3 μM CHIR plus 10 μM Y27632 or 30 μM blebbistatin
Description: We then decided to mimic the reduction in anisotropic stress that occurs over the tip life-cycle in vivo by adding the ROCK inhibitor Y-27632 or the non-muscle myosin II inhibitor blebbistatin to day 9 metanephric mesenchyme spheroids for 48 hr. These temporal parameters were optimized to capture early transitions of cells through the SIX2+ state and to accumulate differentiation events sparsely, enabling quantification. Spheroids were analyzed by immunofluorescence for SIX2 and the pre-tubular aggregate/renal vesicle (early nephron) marker LHX1 (FIG. 6E). […] These LHX1+ cells clustered and began to express the later medial nephron marker Jag1, indicating appropriate progression of differentiation after perturbation (FIG. 6D).
Nephron progenitor spheroid differentiation assays. Day 9 cap mesenchyme-stage nephron progenitors were lifted with Accutase and re-plated at 50,000 cells per well in 96-well ultra low attachment round-bottom plates (Corning 7007) in Advanced RPMI 1640 Medium, Glutamax, 1× Penn/Strep and 10 ng ml^−1 FGF9 (“basal media”) plus the specified perturbation conditions, which included 3 μM CHIR, 10 μM Y27632 (StemCell Technologies, 72304) from a 10 mM stock in DMSO, and/or 30 μM(S) (S)-(−)-blebbistatin (Tocris, 1852) from a 30 mM stock in DMSO. Cells were then aggregated by plate centrifugation at 300 g for 30 s. After 48 hr in culture, spheroids were collected and transferred to 1.7 mL tubes using a p200 pipette tip widened by cutting the tip to size with a razor blade. Excess media was removed and spheroids were fixed in ice-cold 4% paraformaldehyde in PBS for 15 min. Spheroids were then stained for immunofluorescence microscopy similar to kidneys (see Kidney immunofluorescence imaging.) via primary and secondary antibody incubation for 48 hr each at 4 C and washes in PBSTX totaling 6 hours. Primary antibodies and dilutions included mouse anti-Lhx1 (1:50, 4F2, Developmental Studies Hybridoma Bank, University of Iowa, RRID: AB_531784) and rabbit anti-Six2 (1:600, 11562-1-AP, Proteintech, RRID: AB_2189084). Spheroids were then incubated in 1 μg ml^−1 DAPI in PBS at 4 C for 1 hr before washing once in ice-cold PBS. Spheroids were transferred for imaging using a widened p200 pipette tip to a cover-slip bottom 24-well plate (Greiner 662892). Excess PBS was removed and spheroids were incubated with ˜20 μl of FocusClear (Cedarlane Labs, FC-101) for 20 min at room temperature prior to confocal imaging. Spheroids were imaged using 5 μm z-steps.
Quantification of spheroid cell differentiation. Maximum intensity projections of spheroids were generated and further processed in FIJI. DAPI signal was used to segment spheroids and calculate their areas in number of pixels. SIX2 and LHX1 signal was segmented using 50 pix rolling ball background subtraction and thresholding to remove background signal. The total numbers of SIX2+ and LHX1+ pixels were then divided by the total number of DAPI+ pixels to normalize positive pixels by spheroid area.

[3] = tested on: Rho-associated protein kinase (ROCK); settings: cited from earlier work

SMILES | LHX1+ early nephron cells in spheroids (marker positive pixel area as % of projection area) [2] | LHX1+ early nephron cells in spheroids, agent combined with CHIR [2] | also measured
Cc1c[nH]c(-c2cnc(NCCNc3ccc(C#N)cn3)nc2-c2ccc(Cl)cc2Cl)n1 [CHIR] | increased differentiation to the LHX1+ state |  | Cell release from substrate and compaction [1]: induced cell release from their substrate and compaction
Cc1cncc2cccc(S(=O)(=O)N3CCCNC[C@@H]3C)c12 [H1152] |  |  | Nephron formation, high dose ([3]; high dose H1152): decreases in nephron formation; Nephron formation, low dose ([3]; low dose H1152): increases in nephron formation
C[C@@H](N)[C@H]1CC[C@H](C(=O)Nc2ccncc2)CC1 [Y-27632] | did not by itself induce LHX1+ cells | synergistic effect | SIX2+ nephron progenitors in spheroids (marker positive pixel area as % of projection area) ([2]; 10 μM Y27632 in FGF9 basal media, without CHIR): increased cell conversion to and/or self-renewal of SIX2+ progenitors
Cc1ccc2c(c1)C(=O)[C@]1(O)CCN(c3ccccc3)C1=N2 [blebbistatin, (S)-(−)-blebbistatin] |  | synergistic effect | 
